Test results: ChEMBL document CHEMBL1146654, “3-(7-Azaindolyl)-4-arylmaleimides as potent, selective inhibitors of glycogen synthase kinase-3” (Bioorg Med Chem Lett, 2004)

Tests used:
Parameters in all cases: scale not given: the % may be the effect or the level left
[1] = molecular target: Mitogen-activated protein kinase 3 (Homo sapiens) (UniProt P27361); experiment: Inhibition of compound against mitogen-activated protein kinase 1
[2] = molecular target: T1, Serine/threonine-protein kinase Chk1 (Homo sapiens) (UniProt O14757); experiment: Inhibition of Serine/threonine-protein kinase Chk1
T1 sequence (whole entry): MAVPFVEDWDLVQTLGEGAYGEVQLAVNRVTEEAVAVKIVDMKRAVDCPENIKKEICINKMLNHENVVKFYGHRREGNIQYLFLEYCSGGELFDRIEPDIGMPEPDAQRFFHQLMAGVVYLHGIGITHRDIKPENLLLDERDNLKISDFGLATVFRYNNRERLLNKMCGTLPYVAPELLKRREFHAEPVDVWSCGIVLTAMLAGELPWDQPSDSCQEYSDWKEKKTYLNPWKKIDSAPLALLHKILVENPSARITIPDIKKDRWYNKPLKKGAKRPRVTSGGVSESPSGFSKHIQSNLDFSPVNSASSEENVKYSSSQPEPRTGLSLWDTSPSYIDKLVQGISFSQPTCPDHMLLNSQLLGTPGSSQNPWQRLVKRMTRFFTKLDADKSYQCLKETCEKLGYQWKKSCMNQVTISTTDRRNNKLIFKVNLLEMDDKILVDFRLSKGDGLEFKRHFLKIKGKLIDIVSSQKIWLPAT

[3] = molecular target: Mitogen-activated protein kinase 8 (Homo sapiens) (UniProt P45983); experiment: Inhibition of c-Jun N-terminal kinase 1-alpha 1
[4] = molecular target: Ribosomal protein S6 kinase alpha-3 (Homo sapiens, UniProt P51812); experiment: Inhibition of Ribosomal S6 kinase 3
[5] = molecular target: Tyrosine-protein kinase SYK (Homo sapiens) (UniProt P43405); experiment: Inhibition of Syk protein tyrosine kinase
[6] = molecular target: T2, Inhibitor of nuclear factor kappa-B kinase subunit beta (Homo sapiens) (UniProt O14920); experiment: Inhibition of I-kappa-B-kinase beta
T2 sequence (whole entry): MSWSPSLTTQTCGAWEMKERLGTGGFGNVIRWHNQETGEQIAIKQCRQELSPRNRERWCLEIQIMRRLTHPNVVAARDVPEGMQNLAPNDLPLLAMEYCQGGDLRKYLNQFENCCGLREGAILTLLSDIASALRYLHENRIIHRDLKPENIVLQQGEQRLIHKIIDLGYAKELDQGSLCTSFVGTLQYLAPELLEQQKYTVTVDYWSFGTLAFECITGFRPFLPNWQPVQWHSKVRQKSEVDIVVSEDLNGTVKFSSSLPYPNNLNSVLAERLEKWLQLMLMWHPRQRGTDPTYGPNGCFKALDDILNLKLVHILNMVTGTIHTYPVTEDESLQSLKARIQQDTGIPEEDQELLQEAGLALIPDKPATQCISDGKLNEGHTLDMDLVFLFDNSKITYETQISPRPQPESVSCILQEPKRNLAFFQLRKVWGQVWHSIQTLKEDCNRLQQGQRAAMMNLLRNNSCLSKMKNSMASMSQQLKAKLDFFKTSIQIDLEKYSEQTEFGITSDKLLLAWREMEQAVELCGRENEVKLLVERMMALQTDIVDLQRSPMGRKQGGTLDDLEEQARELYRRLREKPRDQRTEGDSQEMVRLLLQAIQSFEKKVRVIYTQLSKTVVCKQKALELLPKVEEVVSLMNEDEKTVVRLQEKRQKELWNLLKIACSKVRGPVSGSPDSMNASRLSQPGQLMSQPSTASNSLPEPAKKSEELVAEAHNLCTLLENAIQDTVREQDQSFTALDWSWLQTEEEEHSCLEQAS

[7] = molecular target: Mitogen-activated protein kinase 1 (Mus musculus) (UniProt P63085); experiment: (§1) Inhibition of mitogen-activated protein kinase 2
Mitogen-activated protein kinase 1 (Mus musculus), sequence (P63085 whole entry): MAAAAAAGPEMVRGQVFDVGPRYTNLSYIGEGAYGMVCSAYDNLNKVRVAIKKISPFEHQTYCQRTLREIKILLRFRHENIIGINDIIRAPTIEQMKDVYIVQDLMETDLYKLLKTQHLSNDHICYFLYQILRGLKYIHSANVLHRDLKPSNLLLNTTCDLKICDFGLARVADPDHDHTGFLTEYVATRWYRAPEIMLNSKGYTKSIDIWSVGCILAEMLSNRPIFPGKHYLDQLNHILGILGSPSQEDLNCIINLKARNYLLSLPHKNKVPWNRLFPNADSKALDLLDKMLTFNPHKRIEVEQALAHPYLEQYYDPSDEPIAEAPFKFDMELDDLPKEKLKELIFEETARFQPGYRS

[8] = molecular target: Mitogen-activated protein kinase 1 (Homo sapiens) (UniProt P28482); experiment: as §1
Mitogen-activated protein kinase 1 (Homo sapiens), sequence (P28482 whole entry): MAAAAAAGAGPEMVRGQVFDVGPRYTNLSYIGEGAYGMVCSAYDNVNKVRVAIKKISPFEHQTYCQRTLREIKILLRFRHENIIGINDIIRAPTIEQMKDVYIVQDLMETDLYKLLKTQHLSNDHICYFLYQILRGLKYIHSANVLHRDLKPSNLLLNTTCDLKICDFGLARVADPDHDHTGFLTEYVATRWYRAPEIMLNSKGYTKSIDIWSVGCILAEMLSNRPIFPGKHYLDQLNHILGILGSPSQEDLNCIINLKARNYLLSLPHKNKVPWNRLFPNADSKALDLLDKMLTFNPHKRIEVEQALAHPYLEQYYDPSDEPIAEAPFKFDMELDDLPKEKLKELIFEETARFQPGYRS

[9] = molecular target: Fibroblast growth factor receptor 3 (Homo sapiens) (UniProt P22607); experiment: Inhibition of Fibroblast growth factor receptor 3
[10] = molecular target: Insulin-like growth factor 1 receptor (Homo sapiens) (UniProt P08069); experiment: Inhibition of insulin-like growth factor I receptor
Insulin-like growth factor 1 receptor (Homo sapiens), sequence (P08069 31-736 limits assumed): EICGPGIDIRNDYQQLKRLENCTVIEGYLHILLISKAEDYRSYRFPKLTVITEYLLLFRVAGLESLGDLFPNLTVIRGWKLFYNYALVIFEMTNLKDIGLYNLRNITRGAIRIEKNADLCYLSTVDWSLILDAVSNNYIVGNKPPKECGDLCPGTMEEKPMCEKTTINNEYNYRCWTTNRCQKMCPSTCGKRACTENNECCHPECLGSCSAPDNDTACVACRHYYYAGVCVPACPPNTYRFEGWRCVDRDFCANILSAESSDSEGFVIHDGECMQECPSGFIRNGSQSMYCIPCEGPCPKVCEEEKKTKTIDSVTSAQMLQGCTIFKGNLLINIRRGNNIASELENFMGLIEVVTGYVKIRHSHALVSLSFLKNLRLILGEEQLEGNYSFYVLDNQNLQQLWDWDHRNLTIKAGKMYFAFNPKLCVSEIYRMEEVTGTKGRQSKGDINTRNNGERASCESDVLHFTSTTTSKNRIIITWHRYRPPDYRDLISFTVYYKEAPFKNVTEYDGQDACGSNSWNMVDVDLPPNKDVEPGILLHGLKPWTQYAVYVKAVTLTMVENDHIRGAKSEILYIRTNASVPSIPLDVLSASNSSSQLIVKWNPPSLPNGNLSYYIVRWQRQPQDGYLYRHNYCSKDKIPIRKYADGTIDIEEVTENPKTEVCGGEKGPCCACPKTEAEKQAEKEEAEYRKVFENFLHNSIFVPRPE
Insulin-like growth factor 1 receptor (Homo sapiens), sequence (P08069 741-1367 limits assumed): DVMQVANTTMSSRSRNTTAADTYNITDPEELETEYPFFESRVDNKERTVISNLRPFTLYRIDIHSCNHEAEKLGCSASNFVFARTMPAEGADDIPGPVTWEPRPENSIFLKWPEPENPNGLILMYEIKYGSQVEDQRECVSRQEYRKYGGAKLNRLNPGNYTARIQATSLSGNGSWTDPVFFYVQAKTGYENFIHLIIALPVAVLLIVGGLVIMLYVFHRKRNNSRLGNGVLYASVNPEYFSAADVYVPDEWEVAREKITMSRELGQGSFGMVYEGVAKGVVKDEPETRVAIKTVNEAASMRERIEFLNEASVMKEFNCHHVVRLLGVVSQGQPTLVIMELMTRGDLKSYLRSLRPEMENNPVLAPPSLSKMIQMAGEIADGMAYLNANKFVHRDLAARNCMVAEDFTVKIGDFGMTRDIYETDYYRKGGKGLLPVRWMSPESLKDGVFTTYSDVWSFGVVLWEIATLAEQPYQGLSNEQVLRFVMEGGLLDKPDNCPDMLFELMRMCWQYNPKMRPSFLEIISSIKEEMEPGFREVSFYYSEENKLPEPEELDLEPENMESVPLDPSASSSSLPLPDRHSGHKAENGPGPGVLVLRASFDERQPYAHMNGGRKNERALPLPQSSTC

[11] = molecular target: Ribosomal protein S6 kinase alpha-1 (Rattus norvegicus) (UniProt Q63531); experiment: Inhibition of Ribosomal S6 kinase 1
Homo sapiens = species: Homo sapiens; experiment: Inhibition of PKA
[12] = molecular target: Protein kinase C gamma type (Homo sapiens, UniProt P05129); experiment: Inhibition of PKCgamma
[13] = molecular target: Cyclin-dependent kinase 1/cyclin B (Homo sapiens) (UniProt P06493+P14635+Q8WWL7+O95067); experiment: Inhibition of cyclin-dependent kinase 1-cyclin B; assay type: protein-complex assay
[14] = molecular target: Ribosomal protein S6 kinase (P70S6K) (Homo sapiens) (UniProt Q9UBS0+P23443); experiment: Inhibition of p70 Ribosomal protein S6 kinase; assay type: protein-complex assay
[15] = molecular target: Proto-oncogene tyrosine-protein kinase Src (Homo sapiens) (UniProt P12931); experiment: Inhibition of c-Src tyrosine kinase
[16] = molecular target: T3, MAP kinase-activated protein kinase 5 (Homo sapiens) (UniProt Q8IW41); experiment: Inhibition of PRAK, MAPK5
T3 sequence (whole entry): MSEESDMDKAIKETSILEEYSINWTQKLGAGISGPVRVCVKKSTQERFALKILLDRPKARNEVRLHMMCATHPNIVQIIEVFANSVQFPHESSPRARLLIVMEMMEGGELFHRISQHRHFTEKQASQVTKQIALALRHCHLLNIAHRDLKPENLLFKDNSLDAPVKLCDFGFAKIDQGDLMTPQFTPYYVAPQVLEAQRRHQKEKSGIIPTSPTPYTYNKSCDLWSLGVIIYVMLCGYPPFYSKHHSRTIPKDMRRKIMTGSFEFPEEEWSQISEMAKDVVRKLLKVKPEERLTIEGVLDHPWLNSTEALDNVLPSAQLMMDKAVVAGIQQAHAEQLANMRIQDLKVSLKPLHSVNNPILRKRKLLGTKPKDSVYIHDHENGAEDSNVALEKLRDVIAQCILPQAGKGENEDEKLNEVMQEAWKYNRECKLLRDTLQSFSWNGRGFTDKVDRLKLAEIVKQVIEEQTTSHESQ

[17] = molecular target: Mitogen-activated protein kinase 11 (Homo sapiens) (UniProt Q15759); experiment: Inhibition of Stress activated protein kinase 2b
Mitogen-activated protein kinase 11 (Homo sapiens), sequence (Q15759 whole entry): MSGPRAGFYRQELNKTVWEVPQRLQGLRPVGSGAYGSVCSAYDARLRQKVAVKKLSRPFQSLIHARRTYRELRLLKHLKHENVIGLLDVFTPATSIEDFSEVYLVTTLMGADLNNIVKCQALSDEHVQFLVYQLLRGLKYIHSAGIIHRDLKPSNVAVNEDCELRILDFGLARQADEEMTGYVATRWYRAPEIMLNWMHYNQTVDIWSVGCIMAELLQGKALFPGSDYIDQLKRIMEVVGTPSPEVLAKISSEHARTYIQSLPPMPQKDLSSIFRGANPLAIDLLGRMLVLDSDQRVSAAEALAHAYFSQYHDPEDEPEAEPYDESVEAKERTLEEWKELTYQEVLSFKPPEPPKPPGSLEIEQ

[18] = molecular target: Tyrosine-protein kinase Lck (Homo sapiens) (UniProt P06239); experiment: Inhibition of p56 Lck tyrosine kinase
Tyrosine-protein kinase Lck (Homo sapiens), sequence (P06239 2-509 limits assumed): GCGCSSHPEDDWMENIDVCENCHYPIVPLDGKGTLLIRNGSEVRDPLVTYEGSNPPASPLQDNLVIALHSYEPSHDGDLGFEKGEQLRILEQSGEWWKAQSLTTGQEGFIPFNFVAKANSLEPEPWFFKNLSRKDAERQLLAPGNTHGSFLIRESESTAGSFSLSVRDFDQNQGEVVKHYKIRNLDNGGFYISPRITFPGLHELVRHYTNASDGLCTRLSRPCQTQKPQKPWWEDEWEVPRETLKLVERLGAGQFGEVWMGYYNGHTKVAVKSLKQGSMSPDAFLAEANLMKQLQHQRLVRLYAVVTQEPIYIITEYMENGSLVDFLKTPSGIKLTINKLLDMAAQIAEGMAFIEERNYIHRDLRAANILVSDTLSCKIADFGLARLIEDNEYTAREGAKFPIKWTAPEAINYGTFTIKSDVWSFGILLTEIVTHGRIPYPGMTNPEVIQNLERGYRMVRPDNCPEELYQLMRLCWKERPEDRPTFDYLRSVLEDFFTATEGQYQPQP

[19] = molecular target: Ribosomal protein S6 kinase alpha-2 (Homo sapiens) (UniProt Q15349); experiment: Inhibition of Ribosomal S6 kinase 2
Ribosomal protein S6 kinase alpha-2 (Homo sapiens), sequence (Q15349 whole entry): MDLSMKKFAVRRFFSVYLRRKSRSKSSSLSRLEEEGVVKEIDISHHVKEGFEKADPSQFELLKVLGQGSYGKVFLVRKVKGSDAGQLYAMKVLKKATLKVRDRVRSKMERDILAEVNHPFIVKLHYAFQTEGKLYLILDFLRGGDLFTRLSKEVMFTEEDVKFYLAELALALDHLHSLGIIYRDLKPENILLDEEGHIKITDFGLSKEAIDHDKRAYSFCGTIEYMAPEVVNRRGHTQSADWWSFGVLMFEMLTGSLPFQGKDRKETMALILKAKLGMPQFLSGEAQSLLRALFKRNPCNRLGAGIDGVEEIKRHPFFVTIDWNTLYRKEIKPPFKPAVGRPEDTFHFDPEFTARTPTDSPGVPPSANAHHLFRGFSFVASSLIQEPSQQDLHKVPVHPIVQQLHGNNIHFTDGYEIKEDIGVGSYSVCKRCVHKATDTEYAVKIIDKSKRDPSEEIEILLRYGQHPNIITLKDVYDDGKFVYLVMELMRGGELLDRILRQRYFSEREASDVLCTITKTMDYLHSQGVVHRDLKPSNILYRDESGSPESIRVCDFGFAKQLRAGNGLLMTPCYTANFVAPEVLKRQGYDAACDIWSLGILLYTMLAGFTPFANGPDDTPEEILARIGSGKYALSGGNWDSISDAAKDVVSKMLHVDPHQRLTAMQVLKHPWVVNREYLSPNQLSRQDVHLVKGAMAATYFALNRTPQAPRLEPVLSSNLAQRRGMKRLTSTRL

Mitogen-activated protein kinase 3 (Homo sapiens), sequence (P27361 whole entry): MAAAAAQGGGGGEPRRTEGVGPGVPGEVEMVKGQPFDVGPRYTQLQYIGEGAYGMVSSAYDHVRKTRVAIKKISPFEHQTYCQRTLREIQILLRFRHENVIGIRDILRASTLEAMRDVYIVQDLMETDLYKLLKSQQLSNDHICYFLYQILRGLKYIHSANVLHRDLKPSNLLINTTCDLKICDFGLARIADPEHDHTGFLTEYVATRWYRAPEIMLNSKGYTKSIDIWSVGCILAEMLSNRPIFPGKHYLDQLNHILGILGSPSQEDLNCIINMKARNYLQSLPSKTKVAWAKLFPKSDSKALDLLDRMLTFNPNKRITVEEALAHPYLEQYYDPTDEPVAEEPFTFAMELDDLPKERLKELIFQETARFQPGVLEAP

| Activity [1] | Activity [2] | Activity [3] | Activity [4] | Activity [5] | Activity [6] | Activity [7] | Activity [8] | Activity [9] | Activity [10] | Activity [11] | Activity (Homo sapiens) | Activity [12] | Activity [13] | Activity [14] | Activity [15] | Activity [16] | Activity [17] | Activity [18] | Activity [19] | SMILES |
| --- | --- | --- | --- | --- | --- | --- | --- | --- | --- | --- | --- | --- | --- | --- | --- | --- | --- | --- | --- | --- |
| 66% | 73% | 80% | 60% | 76% | 83% | 93% | 91% | 64% | 78% | 66% | 87% | 72% | 34% | 88% | 93% | 59% | 94% | 82% | 77% | O=C1NC(=O)C(c2cn(CCCO)c3ncccc23)=C1c1ncc(C(F)(F)F)cc1Cl |
| 78% | 78% | 75% | 33% | 86% | 81% | 100% | 92% | 79% | 80% | 48% | 92% | 59% | 9% | 87% | 99% | 82% | 102% | 84% | 54% | COCCCn1cc(C2=C(c3ccccc3O)C(=O)NC2=O)c2cccnc21 |
| 81% | 95% | 81% | 24% | 88% | 91% | 89% | 92% | 83% | 86% | 38% | 95% | 76% | 3% | 82% | 74% | 57% | 106% | 67% | 31% | COc1ccccc1C1=C(c2cn(CCCNC(=O)OC(C)(C)C)c3ncccc23)C(=O)NC1=O |
